One molecule from patent publication US9828344B2, “Inhibitors of the notch signaling pathway and secretion for use in medicine” (Leibniz-Institut für Altersforschung Fritz-Lipmann-Institut …, priority 2012, dated 2017) can be followed below.

Format in all cases: cell-based
The subject of one test is Golgi apparatus. The experiment in a line: Immunofluorescence of Golgi and early secretory pathway markers in HeLa cells.
A further test concerns ER. The experiment in a line: ER tubule-to-sheet live-cell imaging in COS cells (prlss-KDEL-mRFP). The protocol:
FIG. 7: FLI-06 induces ER sheet formation. A) COS cells transfected with prlss-KDEL-mRFP were incubated with 10 μM FLI-06 for indicated times and imaged by live-cell microscopy. The inserts are magnifications of the boxed areas. B) Images from cells treated as in A) were scored for the percentage of cells that lost most of their ER-tubules. For each time point 40-60 cells were counted. Data represent mean percentages, error bars SEM, n=3 independent experiments.
FIG. 16: Only ER exit inhibitors convert ER tubules to sheets. COS cells plated on LabTek chambered coverslips were transiently transfected with the ER-marker prlss-KDEL-mRFP, incubated the next day for 2 h with 10 iM of indicated compounds and imaged by live-cell microscopy. […] FLI-06+CHX, cells were additionally incubated in 40 iM cycloheximide. Nife, nifedipine; nimo, nimodipine. Numbers refer to numbering in FIG. 5a.
We noted a morphological change of the ER upon FLI-06 incubation that was difficult to capture in fixed cells. Live-cell imaging was therefore performed in COS cells transfected with the ER marker prlss-KDEL-mRFP (supp. Ref 3) and FLI-06 was added for 120 min (FIG. 7a). After 120 min almost all cells had no detectable ER-tubules anymore and instead were filled with large sheet-like structures. […] To test whether the morphological change is related to the inhibition of ER exit, next our set of FLI-06 derivatives was tested. […] Rather, the ER-sheets are indicative for structural changes, maybe initiated within ERES, that inhibit ER exit.

The test system of a further test is microtubuli or actin. Nature of the test: Microtubule and actin integrity in HeLa cells. The note with it: 4 h.
A further test relates to YFP-GPI. Nature of the test: Surface transport of YFP-GPI in HeLa cells. As to conditions: 18 h; 1 ig/ml BFA or 10 iM FLI-06.
A further test concerns endocytosis. Nature of the test: Transferrin uptake assay. The procedure: FIG. 13: FLI-06 causes dispersal of early Golgi and TGN, but no tubulation of endosomes. Hela cells were incubated with DMSO or 10 iM FLI-06 or 1 ig/ml BFA for 18 h, fixed, stained with antibodies as indicated and imaged by fluorescence microscopy. Endosomes were visualized by adding Alexa555-labelled transferrin on ice and chasing for 15 min at 37° C. in the presence of indicated compounds. Arrows indicated tubulating endosomes, scalebar 10 im.
For the transferrin uptake assay cells were starved in serum free medium for 1 h at 37° C. Cells were then transferred on ice and medium was exchanged to serum free medium supplemented with 25 μg/ml AlexaFluor555-Transferrin conjugate (Molecular Probes) and test compounds. After 15 min on ice cells were incubated with pre-warmed serum-supplemented medium containing test compounds and incubated at 37° C.

A further test relates to SEAP. Nature of the test: Secreted alkaline phosphatase (SEAP) assay in HeLa cells. The note with it: medium measured via photometry. The protocol:
FIG. 18: FLI-06 inhibits secretion of secreted alkaline phosphates; FLI-06 kills cancerous, Notch dependent T-cells. a) The secreted alkaline phosphatase (SEAP) assay was carried out. Medium was collected and SEAP secretion was measured via photometry. […] The cells were grown in suspension with the indicated amounts of FLI-06 or DMSO control and growth was determined via FACS analysis.
In order to confirm the inhibitory effect of FLI-06 on secretion we transfected HeLa cells with a plasmid encoding a secreted alkaline phosphatase (SEAP).

A further test concerns Klotho. Nature of the test: Klotho trafficking/processing in HEK293 cells stably expressing Klotho. As to conditions: 10 μM, 16 h. The procedure:
FIG. 3: Effect of compounds on NotchΔE-EGFP, APP and Klotho trafficking and processing. a) HEK293 stably expressing APPswe or Klotho (KI) were incubated with DAPT or compounds (10 μM) for 16 h. Media were collected, cells lysed and both assayed by Western blotting using indicated antibodies. m, mature; im, immature; s, shedded ectodomain; CTF, C-terminal fragment. b) Membranes from HeLa-NotchΔE-EGFP and APPswe cells were isolated and subjected to a γ-secretase in vitro assay in the presence of DAPT or compounds as indicated. NICD and AICD were detected by Western Blotting using antibodies against the C-terminus of APP (top) or antibodies specific for NICD (bottom). c) Quantitation from 5 independent experiments.
To test whether FLI-06 affected other membrane proteins, Klotho, a type I protein processed like APP and Notch^20, was analyzed. […] To analyze γ-secretase activity, in vitro assays using isolated membranes were performed (FIG. 3b, c). Production of NICD-EGFP and AICD (APP intracellular domain) were assayed. Both were produced in vitro at 37° C. but not at 4° C., and their production was inhibited by DAPT.
APP, APPs, APPCTF and Aβ detection was as described before^54 using antibodies 22C11 for APP and APPs, 6687 for APPCTF and 3552 and 2D8 for Aβ. Klotho was detected as described in Bloch et al.^20. Chemoluminescence was quantified on a LAS-4000 (Fuji) with MultiGauge software.

The target in a further test is T1, GBF1 (Homo sapiens, UniProt Q92538).
T1 construct: expressed in transfected cells; host or cells: HeLa (transient)
T1 sequence (Q92538 whole entry, species assumed): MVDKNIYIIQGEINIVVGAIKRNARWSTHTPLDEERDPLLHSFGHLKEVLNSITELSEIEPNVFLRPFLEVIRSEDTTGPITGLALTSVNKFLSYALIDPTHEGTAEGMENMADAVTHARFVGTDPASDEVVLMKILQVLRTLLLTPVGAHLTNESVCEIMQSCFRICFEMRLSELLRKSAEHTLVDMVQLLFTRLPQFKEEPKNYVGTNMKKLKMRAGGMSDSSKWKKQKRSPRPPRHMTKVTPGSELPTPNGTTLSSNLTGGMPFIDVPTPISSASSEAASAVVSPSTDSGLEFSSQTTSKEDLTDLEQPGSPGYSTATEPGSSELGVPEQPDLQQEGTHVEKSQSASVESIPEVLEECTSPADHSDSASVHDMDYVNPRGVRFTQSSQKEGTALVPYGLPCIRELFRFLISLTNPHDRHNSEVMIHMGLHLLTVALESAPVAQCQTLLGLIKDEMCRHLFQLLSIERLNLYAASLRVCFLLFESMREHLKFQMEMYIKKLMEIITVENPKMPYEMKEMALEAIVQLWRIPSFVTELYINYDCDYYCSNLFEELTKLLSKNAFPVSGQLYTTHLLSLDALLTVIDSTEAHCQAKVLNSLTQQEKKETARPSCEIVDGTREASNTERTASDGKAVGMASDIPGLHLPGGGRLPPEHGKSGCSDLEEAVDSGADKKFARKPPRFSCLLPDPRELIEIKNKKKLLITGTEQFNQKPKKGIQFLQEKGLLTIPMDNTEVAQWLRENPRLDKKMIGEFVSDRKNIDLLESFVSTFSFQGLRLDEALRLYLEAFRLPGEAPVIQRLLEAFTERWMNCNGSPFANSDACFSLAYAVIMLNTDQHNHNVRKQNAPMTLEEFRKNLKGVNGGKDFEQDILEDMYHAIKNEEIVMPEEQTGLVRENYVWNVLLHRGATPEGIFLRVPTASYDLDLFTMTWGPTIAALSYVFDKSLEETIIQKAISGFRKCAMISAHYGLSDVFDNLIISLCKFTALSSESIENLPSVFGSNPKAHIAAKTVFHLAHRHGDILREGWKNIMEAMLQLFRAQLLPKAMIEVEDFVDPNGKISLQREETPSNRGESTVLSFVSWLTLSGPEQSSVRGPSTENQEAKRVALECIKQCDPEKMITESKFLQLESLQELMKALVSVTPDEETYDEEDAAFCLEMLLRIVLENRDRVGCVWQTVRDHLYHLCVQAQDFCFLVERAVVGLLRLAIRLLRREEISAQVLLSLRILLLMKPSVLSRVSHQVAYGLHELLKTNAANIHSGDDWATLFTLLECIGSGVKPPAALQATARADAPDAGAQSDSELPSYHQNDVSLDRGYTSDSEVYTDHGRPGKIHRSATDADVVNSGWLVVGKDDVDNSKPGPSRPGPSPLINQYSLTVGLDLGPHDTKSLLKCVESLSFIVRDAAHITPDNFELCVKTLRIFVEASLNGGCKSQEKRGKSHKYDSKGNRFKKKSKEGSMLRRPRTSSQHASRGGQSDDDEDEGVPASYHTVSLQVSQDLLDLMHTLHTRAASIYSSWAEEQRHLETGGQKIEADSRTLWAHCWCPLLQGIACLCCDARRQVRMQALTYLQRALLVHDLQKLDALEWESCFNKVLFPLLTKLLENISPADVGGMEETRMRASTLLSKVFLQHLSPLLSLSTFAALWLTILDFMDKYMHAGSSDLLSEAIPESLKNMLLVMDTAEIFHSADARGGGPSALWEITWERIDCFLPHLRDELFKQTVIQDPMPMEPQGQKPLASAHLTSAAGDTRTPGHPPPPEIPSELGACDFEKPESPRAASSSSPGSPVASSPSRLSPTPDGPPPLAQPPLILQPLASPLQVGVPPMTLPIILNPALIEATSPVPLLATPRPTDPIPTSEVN
Nature of the test: GBF1-GFP distribution in transfected HeLa cells. The note with it: FLI-06 10 μM, BFA 10 μg/ml, GCA 10 μM, 10 h.

As to `CC1=C(C(=O)OC2CCCCC2)C(c2ccc([N+](=O)[O-])cc2)C2=C(CC(C)(C)CC2=O)N1` (stereo not drawn) [FLI-06, Cyclohexyl 4-(4′-nitrophenyl)-2,7,7-trimethyl-5-oxo-1,4,5,6,7,8-hexahydroquinoline-3-carboxylate], the “Golgi integrity (giantin)” value in the test on Golgi apparatus (10 μM, 18 h) is given as “complete disruption of the Golgi”. In addition, the “time to loss of Golgi-like juxtanuclear βCOP staining” value with Golgi apparatus (1 ig/ml BFA or 10 iM FLI-06) was in the range of 30 to 40 min. For the same molecule, the “distribution of GM130 and TGN46” value with Golgi apparatus (10 iM FLI-06 or 1 ig/ml BFA, 18 h) is “dispersal of the cis-Golgi marker GM130 and of the trans-Golgi network (TGN) marker TGN46”. Also, the “hyperglycosylation of VSVG-EGFP” value in the test with Golgi apparatus (4 h at 40° C. with cycloheximide) is listed as “did not cause a hyperglycosylation”. Moreover, the tubulation of endosomes result in the test with Golgi apparatus (Alexa555-transferrin labelled endosomes) is on record as “did not cause tubulation of endosomes”. Also, in the test on Golgi apparatus (prlss-KDEL-mRFP and B4GALT-EGFP markers), the “fusion of ER and Golgi” value was “did not lead to fusion of ER and Golgi”. Besides, in the test on ER (10 μM FLI-06), the “start of ER sheet-formation” value fell in the range of 5 to 10 min and the “t1/2 of ER sheet-formation” value was “about 14 min”. The ER tubule-to-sheets phenotype entry with ER (10 iM, 2 h) is listed as “elicited the tubule-to-sheets phenotype”. Also, in the test on microtubuli or actin (1.5 ig/ml nocodazole or 10 iM FLI-06), the microtubule network entry is “does not act on the cytoskeleton”. Further, the “actin polymerization and distribution” value with microtubuli or actin (2 iM cytochalasin D or 10 iM FLI-06) is reported as “unaffected”. Moreover, the “surface transport of YFP-GPI” value with YFP-GPI is recorded as “inhibit surface transport of YFP-GPI”. In addition, in the test on endocytosis, the endocytosis of transferrin entry is recorded as “did not affect endocytosis”. Besides, the “secretion of SEAP” value in the test with SEAP is given as “inhibition of secretion of SEAP”. In the test on Klotho, the “glycosylation of Klotho” value is recorded as “aberrant glycosylation”; the “mature, complex-glycosylated post-Golgi form of Klotho” value is “strongly reduced”; the “shedded Klothos in the medium” value is reported as “strong reduction of Klothos in the medium”. Besides, the “distribution of GBF1-GFP” value on GBF1 is reported as “displayed the distribution of control cells”.
